Assay results as given in US9956200B2, “Compositions comprising dihydroquercetin for use in methods for treating the effects associated with skin inflammatory disorders” (BIONOOX SUISSE SA, priority 2014, dated 2018).
Several values for one entry are separate records, joined by “and”; a condition that tells them apart may be missing. Equal values may be shown once.

How the values were obtained:
Assay type in all cases: cell-based
[1] = tested on: polymorphonuclear neutrophils; test: Oxygen consumption of polymorphonuclear neutrophils triggered by PMA and fMLP; conditions: data not shown
human mast cells = test: Mast cell degranulation (beta-hexosaminidase release) induced by IgE then anti-IgE; conditions: versus kinase inhibitors and chromoglycate (reference molecule)
Excerpt: Pure populations of human mast cells (HMC) are obtained by long-term culture of human normal hematopoietic progenitors (CD34^+ cells) in the continuous presence of Stem Cell Factor (SCF). Sources of these CD34^+ cells are mainly bone marrow, cord blood or peripheral blood. Usually, mononuclear cells from bone marrow and cord blood contain 0.5-1% of CD34^+ cells, whereas peripheral blood contains less than 0.1% of CD34^+ cells. Hematopoietic progenitor cells can be rapidly and efficiently enriched to a purity of about 85-98% using positive selection of magnetically labeled CD34^+ cells. Hematopoietic progenitor cells are then magnetically labeled using MACS CD34 MicroBeads. The magnetically labeled cells are enriched on positive selection columns in the magnetic field. Mononuclear cells from peripheral blood (PBMC), cord blood, or bone marrow may otherwise be obtained by density gradient centrifugation over Ficoll Paque®. Fractionation methods for producing mast cells are described in the art (see for instance Arock et al., 2008, Methods in Molecular biology 415: 241-254). Mast cell degranulation was induced by sequential treatment of mast cell by IgE, then by anti-IgE antibodies. Degranulation was subsequently measured by evaluating the release of beta-hexosaminidase, 1 h after IgE stimulation (see FIG. 4).

[2] = tested on: neutrophils triggered by fMLP; test: ROS production by luminol chemiluminescence, neutrophils triggered by fMLP; conditions: fMLP 10^−6 M; DHQ 1, 10 or 100 μM, concentration per sample not given
Protocol: Neutrophils (5×10^5) are suspended in 0.5 mL of Hanks balanced salt solution containing 10 μM luminol at 37° C. The cells are then stimulated with 10^−6M fMLF (N-formylmethionyl-leucyl-phenylalanine). Chemiluminescence is recorded with a luminometer (Berthold-Biolumat LB937). Similarly, neutrophils were triggered by fMLP (10^−6 M) in the presence of different concentrations of DHQ (0, 1, 10 and 100 μM) at 37° C. in Hanks buffer containing 10 μM luminol and chemiluminescence was measured by a chemiluminometer. Total chemiluminescence counts during 22.21 min. (integrals) corresponding to total ROS production were determined.

In the case of O=C1c2c(O)cc(O)cc2OC(c2ccc(O)c(O)c2)C1O (stereo not shown) [DHQ], the “effect on oxygen consumption of polymorphonuclear neutrophils” value [1] is reported as “strongly inhibits”, the “inhibitory activity on mast cell degranulation compared with reference molecules” value (human mast cells) is reported as “superior to kinase inhibitors and chromoglycate” and the “T.half (fall)” value [2] is reported as 3.78 and 3.55. For the same molecule, the “T.half (rise)” value [2] was 1.55.
